Holding throughout (test): biochemical
Parameters in all cases: scanMAX competition binding; kinase recovered on immobilized ligand quantified by qPCR, per cent of control
Holding throughout (settings): read-out: APA (POC)
(In general: Real-time PCR tracks product formation cycle by cycle.)

In one experiment the target is CDKL2 (Homo sapiens, UniProt Q92772). The protocol:
(§1) The binding affinities of APA and NAPA were evaluated in the scanMAX^sm Kinase Assay Panel (DiscoverX) at a final concentration of 10 µM. The compounds were tested for steric or allosteric binding to kinases in solution. The kinase was captured from the solution through an immobilized kinase-specific ligand and the kinase recovery was quantified. The amount of recovered kinase in the presence or absence of APA or NAPA was measured by quantitative PCR compared with the kinase capture in absence of the compound. Any compound reducing the binding affinity of a kinase to the respective immobilized ligand was scored as a potential hit, and the binding affinity of the compound toward a kinase is interpreted as the difference between the kinase recovery in the absence and presence of the compound. The inhibitory binding constants (Kd) of APA and NAPA to AURKA were evaluated in a KdELECT Kinase Assay (DiscoverX). […] Data acquisition followed the same methodology as for the scanMAX^sm Kinase Assay Panel. 6 Supplementary Figure 4. Kinome inhibition profiles of APA and its NAT2 metabolite NAPA identifies preferential APA kinase targets and differential binding to AURKA a The human kinome was assessed for binding affinity to APA and NAPA at 10 µM concentration (468 kinases in the scanMAX Kinase Assay Panel, DiscoverX). The family stratification of kinases is shown as a cladogram. Circles visualize the binding affinity of NAPA and APA towards each kinase with a higher intensity of blue corresponding to a higher binding affinity. […] One single data point from one experiment at a concentration 18.5 µM of APA was excluded as an outlier. c Thermal shift assay for human recombinant AURKA in the presence of APA and the selective inhibitor S1451. Melting temperatures were obtained by calculating the first derivative of the tryptophan fluorescence ratio at 350 nm and 330 nm and are shown for AURKA in the presence of S1451 (blue) and APA (yellow). Structural similarities between APA and kinase inhibitors[27] prompted investigation of protein kinases as mediators of APA toxicity. […] To enrich for kinase interactions that could explain the preferential killing of slow NAT2 cells, we compared the binding affinity of each kinase with APA and NAPA, selected 44 targets with preferential binding to APA and excluded kinases non-essential for cell survival and those not expressed in CRC cells (Supplementary Fig. 4A, Supplementary Table 4). […] The growth inhibition of RKO and DLD-1 following siRNA-mediated AURKA knockdown (Figs. 3c, d) reflected the relative efficiency of protein downregulation (Supplementary Fig. 5C, D). […] (Supplementary Fig. 4C). AURKA regulates cell cycle progression through association with other centrosome and spindle-associated proteins. Its activation requires auto-phosphorylation at Thr288 and ensures spindle pole integrity, centrosome duplication as well as adequate chromosomal alignment and segregation, while its inhibition leads to multipolar spindles with acentrosomal poles[28],[31]. […] S1451 reduced the fraction of pAURKA levels by >90% regardless of NAT2 expression (Fig. 3f and Su

The target in the next experiment is DYRK2 (Homo sapiens, UniProt Q92630). The protocol:
as §1

For a further experiment, the target named is CDK7 (Homo sapiens, UniProt P50613). The protocol:
as §1

The next experiment addresses HIPK1 (Homo sapiens, UniProt Q86Z02). The protocol: as §1
For a further experiment, the target named is T1, RPS6KA3_Dom1 (Homo sapiens, UniProt P51812).
T1 construct: gene RPS6KA3; Kin.Dom.1 N-terminal
The protocol: as §1

For the next experiment, the target named is T2, RPS6KA6_Dom1 (Homo sapiens, UniProt Q9UK32).
T2 construct: gene RPS6KA6; Kin.Dom.1 N-terminal
The protocol:
as §1

The next experiment addresses CLK1 (Homo sapiens, UniProt P49759). The protocol: as §1
For the next experiment, the target named is HIPK2 (Homo sapiens, UniProt Q9H2X6). The protocol:
as §1

Another experiment has as its target T3, RPS6KA1_Dom1 (Homo sapiens, UniProt Q15418).
T3 construct: gene RPS6KA1; Kin.Dom.1 N-terminal
The protocol:
as §1

The target in the next experiment is PDGFRA (Homo sapiens, UniProt P16234). The protocol:
as §1

The next experiment has as its target AAK1 (Homo sapiens, UniProt Q2M2I8). The protocol: as §1
The target in the next experiment is HIPK4 (Homo sapiens, UniProt Q8NE63). The protocol: as §1
The next experiment deals with ABL2 (Homo sapiens, UniProt P42684). The protocol: as §1
A further experiment deals with CSF1R (Homo sapiens, UniProt P07333). The protocol: as §1
For the next experiment, the target named is CLK4 (Homo sapiens, UniProt Q9HAZ1). The protocol:
as §1

Molecules are shown by their SMILES.

Sequence of CSF1R (P07333 whole entry): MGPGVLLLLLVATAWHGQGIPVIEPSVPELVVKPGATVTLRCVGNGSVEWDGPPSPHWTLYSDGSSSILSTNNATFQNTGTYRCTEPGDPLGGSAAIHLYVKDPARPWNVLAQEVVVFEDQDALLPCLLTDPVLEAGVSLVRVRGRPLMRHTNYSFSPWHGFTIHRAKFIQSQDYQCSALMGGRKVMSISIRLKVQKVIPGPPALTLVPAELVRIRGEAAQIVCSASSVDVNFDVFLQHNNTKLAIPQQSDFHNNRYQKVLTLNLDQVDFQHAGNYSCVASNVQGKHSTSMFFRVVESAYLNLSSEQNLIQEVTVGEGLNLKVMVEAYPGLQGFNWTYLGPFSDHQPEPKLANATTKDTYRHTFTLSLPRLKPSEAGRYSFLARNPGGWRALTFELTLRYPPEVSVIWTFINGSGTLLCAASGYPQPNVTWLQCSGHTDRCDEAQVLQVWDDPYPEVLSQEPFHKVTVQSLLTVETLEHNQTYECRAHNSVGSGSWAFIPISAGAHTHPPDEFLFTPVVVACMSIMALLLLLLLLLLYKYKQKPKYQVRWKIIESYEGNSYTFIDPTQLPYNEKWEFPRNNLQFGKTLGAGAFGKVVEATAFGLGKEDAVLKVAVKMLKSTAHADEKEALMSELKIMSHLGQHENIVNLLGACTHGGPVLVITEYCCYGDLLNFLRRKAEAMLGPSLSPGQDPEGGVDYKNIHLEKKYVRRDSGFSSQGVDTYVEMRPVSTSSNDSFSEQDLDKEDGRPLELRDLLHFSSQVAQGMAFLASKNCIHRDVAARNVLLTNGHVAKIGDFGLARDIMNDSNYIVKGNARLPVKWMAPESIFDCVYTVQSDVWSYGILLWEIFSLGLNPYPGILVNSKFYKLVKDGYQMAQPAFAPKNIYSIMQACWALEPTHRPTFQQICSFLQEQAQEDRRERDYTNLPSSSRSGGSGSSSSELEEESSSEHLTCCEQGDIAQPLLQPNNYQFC
Sequence of PDGFRA (P16234 whole entry): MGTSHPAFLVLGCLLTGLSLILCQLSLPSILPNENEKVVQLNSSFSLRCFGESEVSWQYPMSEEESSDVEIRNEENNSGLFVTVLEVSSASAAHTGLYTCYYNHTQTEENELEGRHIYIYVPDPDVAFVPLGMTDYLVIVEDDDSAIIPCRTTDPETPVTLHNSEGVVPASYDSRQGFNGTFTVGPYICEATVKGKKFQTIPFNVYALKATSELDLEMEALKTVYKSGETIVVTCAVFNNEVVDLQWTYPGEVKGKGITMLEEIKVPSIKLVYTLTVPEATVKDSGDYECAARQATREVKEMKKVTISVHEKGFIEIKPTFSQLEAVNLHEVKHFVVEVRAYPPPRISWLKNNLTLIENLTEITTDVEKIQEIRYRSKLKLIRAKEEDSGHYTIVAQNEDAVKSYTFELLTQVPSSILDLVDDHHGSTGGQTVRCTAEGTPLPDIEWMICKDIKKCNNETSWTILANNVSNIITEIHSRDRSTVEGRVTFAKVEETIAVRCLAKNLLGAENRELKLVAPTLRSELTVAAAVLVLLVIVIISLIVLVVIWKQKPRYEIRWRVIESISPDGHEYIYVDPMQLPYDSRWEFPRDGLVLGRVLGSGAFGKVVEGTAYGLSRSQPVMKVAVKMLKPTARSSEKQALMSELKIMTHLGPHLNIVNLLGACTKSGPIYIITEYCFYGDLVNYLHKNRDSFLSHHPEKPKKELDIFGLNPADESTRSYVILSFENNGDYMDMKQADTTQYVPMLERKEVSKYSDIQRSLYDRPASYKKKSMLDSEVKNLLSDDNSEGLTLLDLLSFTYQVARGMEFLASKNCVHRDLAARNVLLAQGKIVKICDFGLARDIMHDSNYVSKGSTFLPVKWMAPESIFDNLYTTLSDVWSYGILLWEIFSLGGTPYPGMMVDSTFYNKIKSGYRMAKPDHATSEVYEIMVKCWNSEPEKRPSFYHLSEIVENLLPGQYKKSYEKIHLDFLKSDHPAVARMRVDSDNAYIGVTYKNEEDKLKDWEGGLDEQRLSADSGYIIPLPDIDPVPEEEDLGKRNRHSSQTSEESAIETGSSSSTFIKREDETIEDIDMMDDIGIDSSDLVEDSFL
Sequence of HIPK1 (Q86Z02 whole entry): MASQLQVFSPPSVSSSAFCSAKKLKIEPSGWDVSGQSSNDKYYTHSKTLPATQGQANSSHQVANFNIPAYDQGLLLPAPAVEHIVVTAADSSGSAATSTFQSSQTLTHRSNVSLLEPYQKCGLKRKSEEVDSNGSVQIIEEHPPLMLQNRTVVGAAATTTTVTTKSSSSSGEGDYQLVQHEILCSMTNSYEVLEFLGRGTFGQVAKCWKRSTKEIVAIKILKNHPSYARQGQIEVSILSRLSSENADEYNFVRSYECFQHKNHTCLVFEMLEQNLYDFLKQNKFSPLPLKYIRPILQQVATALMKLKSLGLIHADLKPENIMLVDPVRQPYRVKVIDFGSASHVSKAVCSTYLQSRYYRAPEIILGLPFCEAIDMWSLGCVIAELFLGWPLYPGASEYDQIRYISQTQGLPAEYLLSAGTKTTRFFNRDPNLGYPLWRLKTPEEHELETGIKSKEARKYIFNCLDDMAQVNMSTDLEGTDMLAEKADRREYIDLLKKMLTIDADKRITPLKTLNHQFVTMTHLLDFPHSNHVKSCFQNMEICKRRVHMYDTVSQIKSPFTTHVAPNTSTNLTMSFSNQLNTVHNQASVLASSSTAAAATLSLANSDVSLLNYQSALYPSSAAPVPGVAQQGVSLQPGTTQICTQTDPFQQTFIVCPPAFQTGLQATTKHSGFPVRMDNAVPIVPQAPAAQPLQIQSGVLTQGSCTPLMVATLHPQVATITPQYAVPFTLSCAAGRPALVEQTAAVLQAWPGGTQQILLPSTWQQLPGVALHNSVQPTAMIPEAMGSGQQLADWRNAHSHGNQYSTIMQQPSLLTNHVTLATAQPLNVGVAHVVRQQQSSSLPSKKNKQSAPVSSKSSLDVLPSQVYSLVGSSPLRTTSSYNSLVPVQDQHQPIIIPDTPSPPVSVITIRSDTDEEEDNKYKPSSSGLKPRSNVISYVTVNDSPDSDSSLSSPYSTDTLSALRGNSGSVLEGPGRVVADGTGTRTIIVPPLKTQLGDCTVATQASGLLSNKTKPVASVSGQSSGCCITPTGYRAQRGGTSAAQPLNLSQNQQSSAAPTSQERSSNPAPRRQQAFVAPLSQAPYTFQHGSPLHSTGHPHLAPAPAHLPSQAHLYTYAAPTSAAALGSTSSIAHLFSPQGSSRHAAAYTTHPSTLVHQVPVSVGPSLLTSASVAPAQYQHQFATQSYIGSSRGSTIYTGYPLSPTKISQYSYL
Sequence of CLK1 (P49759 whole entry): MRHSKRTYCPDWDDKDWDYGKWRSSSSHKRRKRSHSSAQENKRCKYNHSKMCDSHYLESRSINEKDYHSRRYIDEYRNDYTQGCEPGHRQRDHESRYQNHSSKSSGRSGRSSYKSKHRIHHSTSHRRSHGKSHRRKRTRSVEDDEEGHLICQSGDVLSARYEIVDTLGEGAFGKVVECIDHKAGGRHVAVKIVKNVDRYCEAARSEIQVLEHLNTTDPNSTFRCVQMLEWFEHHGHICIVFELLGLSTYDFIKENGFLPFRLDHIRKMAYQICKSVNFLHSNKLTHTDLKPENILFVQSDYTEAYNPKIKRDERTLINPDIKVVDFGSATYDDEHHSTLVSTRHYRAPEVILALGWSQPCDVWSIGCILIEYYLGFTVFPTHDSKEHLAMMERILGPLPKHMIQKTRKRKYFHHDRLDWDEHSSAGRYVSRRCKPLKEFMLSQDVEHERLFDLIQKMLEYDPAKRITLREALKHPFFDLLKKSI
Sequence of AAK1 (Q2M2I8 whole entry): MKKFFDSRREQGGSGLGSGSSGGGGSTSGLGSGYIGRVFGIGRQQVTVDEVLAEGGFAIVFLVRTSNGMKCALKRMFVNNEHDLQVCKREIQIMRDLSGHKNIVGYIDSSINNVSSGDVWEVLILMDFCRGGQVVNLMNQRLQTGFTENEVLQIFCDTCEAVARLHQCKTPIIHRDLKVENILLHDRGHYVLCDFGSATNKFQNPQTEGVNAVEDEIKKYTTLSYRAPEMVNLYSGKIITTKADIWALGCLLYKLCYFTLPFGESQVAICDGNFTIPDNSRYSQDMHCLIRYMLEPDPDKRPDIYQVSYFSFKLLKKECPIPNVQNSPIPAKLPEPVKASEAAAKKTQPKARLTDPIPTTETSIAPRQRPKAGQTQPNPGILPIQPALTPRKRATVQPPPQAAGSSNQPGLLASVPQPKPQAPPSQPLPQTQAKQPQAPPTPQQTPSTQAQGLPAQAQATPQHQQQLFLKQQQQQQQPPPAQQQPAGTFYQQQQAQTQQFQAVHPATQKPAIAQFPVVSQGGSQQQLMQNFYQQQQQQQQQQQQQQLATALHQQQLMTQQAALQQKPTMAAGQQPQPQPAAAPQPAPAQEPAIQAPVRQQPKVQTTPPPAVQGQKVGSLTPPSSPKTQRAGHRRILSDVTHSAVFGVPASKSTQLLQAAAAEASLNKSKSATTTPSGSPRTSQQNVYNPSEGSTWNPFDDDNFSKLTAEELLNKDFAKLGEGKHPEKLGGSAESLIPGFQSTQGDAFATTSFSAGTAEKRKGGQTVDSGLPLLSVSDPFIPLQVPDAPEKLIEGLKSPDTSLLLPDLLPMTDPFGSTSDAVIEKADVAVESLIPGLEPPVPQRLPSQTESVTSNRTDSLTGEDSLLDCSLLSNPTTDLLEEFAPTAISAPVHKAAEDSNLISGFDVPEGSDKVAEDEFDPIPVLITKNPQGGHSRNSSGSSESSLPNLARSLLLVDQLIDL
Sequence of CDK7 (P50613 whole entry): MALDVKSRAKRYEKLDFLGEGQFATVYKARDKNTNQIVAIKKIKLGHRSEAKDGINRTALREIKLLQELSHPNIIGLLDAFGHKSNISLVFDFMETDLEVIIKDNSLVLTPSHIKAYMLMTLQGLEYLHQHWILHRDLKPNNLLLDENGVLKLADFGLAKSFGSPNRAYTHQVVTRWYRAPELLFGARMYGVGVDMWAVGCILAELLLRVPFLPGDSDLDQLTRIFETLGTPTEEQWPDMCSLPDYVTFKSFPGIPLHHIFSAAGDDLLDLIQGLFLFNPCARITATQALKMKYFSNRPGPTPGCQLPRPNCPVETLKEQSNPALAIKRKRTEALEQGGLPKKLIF

As for `COc1cc(Nc2cncc(-c3ccc(N)cc3)n2)cc(OC)c1OC` [APA, 6-(4-aminophenyl)-N-(3,4,5-trimethoxyphenyl)pyrazin-2-amine], the remaining binding at 10 µM at CDKL2 was 42%; on DYRK2 it was 63%; on CDK7, 49%; at HIPK1 it was 12%; on RPS6KA3_Dom1, 39%; at RPS6KA6_Dom1 it was 58%. Further, the remaining binding at 10 µM was found to be 25% on CLK1; 22% at HIPK2; 56% at RPS6KA1_Dom1; 3.4% on PDGFRA; 45% on AAK1; 10% at HIPK4. The remaining binding at 10 µM at ABL2 stood at 14%; at CSF1R, 3.9%; at CLK4, 27%.

These data come from PMC7066191, “Exploiting loss of heterozygosity for allele-selective colorectal cancer chemotherapy” (Nature Communications, 2020).
